Measured values reported in US8221736B2, “Semiochemical” (Rothamsted Research Limited, priority 1999, dated 2012).
Marks after values point to notes of the source that are not given here.

Columns and labels:
Type in all cases: in vivo
[1] = system: hop aphid, Phorodon humuli; test: Preliminary field trials, yellow water traps, hop aphid summer morphs; conditions: slow release 2.05 μg/day/trap; P<0.04
[2] = system: pollen beetles; test: Field-trapping experiments with yellow bowl traps against pollen beetles
Experimental: Field-trapping experiments were also conducted using cis-jasmone against pollen beetles. Attractive yellow bowl traps, at 1 m height and 10 m spacing, were placed in a Latin square design (one row of the Latin square=one replicate; traps are re-randomized to the next row of the square when a mean of 10 beetles are caught per trap). Catches in an unbaited bowl were compared with those bowls baited with cis-jasmone released at two different rates. Analysis was by ANOVA, on transformed total catch data. The transformation used was x=log10(y+1), where x and y are the transformed and untransformed data, respectively. Transformed means were compared using the LSD (least […] difference) test and transformed back to give the results as set out in Table 1.
P<0.05. Numbers in brackets are the percent reduction in trap catch compared with the unbaited trap.

[3] = system: cereal aphids (predominantly Metropolophium dirhodum) on winter wheat, Triticum aestivum; test: Field study of cereal aphids on sprayed winter wheat plots; conditions: sprayed 50 g a.i./ha on 5 May and 11 Jun. 1999
Description: The data have been transformed back from the logs to ease presentation. […] The predominant aphid species was Metropolophium dirhodum, the rose-grain aphid. S. avenae and Rhopalosiphum padi were also present, but numbers were very low. […] Plots (6 m×6 m) of winter wheat, Triticum aestivum (cv Consort), were arranged in a 5×5 quasi-complete Latin square design. The five cis-jasmone treated plots were sprayed on 5 May and 11 Jun. 1999, using a hand-held hydraulic device, at a rate of 50 g active ingredient/ha in 200 l/ha of aqueous […] BV (0.1%). Control plots were untreated. […] At each count, five tillers were inspected at 12 separate sites on two diagonal transects totalling 60 tillers per plot. Transformed data (y=log(y+1)) were subjected to ANOVA and the sums of squares of the treatments were partitioned to test for significant differences.

[4] = system: aphid parasitoid Aphidius ervi; test: Wind tunnel single choice test of A. ervi with synthetic compounds on filter paper; conditions: 10 μg on filter paper, hexane control 26.7
Description: Since semiochemicals acting as repellents or inhibitors of host attractancy for herbivorous insects are often involved in predation or parasitism, the activity of cis-jasmone was also investigated at higher trophic levels. […] These experiments indicate a behavioural role for cis-jasmone in influencing interactions between plants, herbivorous insects and their predators and parasitoids. Naive female A. ervi were flown in a wind tunnel, as described in J. Chem. Ecol. 16, 381-396 (1996) (Poppy et al.). The parasitoids were released 25 cm downwind (single choice tests) or 40 cm downwind (dual choice test) of the target, which was either a plant or a synthetic compound (10 μg in 10 μl hexane) placed on a 2×1 cm strip of filter paper (Whatman No. 1) surrounded by a ring of green crêpe paper. The proportions of parasitoids responding with an oriented flight to the synthetic chemicals were calculated each day on 3 separate days. These values were then subjected to a logit transformation to normalize the data before being analysed by ANOVA followed by Tukey post-hoc tests. The number of parasitoids orienting upwind to the single plant target were recorded and subjected to a χ^2 contingency test (Pearson method on Genstat—see Genstat 5 Committee. Genstat 5 Reference Manual, Release 3 (Clarendon Press, Oxford, 1993)) to determine whether an orienting response was linked to the type of plant treatment. The numbers orienting to each plant in the dual choice test were analysed by a χ^2 to determine whether one plant was more attractive than the other.

[5] = system: D251 sequence in Vicia faba plants; test: Differential display and northern blot of gene-specific sequence D251; conditions: northern blot, versus air
Experimental: Total RNA was isolated from stem or leaf tissue of plants exposed to air, methyl jasmonate or cis-jasmone. 10 μg RNA per sample was loaded and separated on a formaldehyde gel (Panel A). The samples were then transferred to a nylon membrane and probed with the D251 sequence (Panel B). Lane 1=air treatment (control); lane 2=cis-jasmone treatment; lane 3=methyl jasmonate treatment. In the case of RNA isolated from leaf tissue, only cis-jasmone treatment results in upregulation. In order to determine if cis-jasmone was capable of inducing alterations in plant gene expression, the sensitive technique of differential display was carried out on RNA extracted from plants which had been exposed to air, methyl jasmonate or cis-jasmone. […] To confirm this observation, bands of interest were recovered by excision from the dried gel and re-amplified with the appropriate pair of oligonucleotide primers. The resulting PCR products were cloned and sequenced to confirm the homogeneous nature of the amplified product. These sequences were then used to probe RNA isolated from control or treated V. faba plants. […] It is important to note that the nature of the differential display technique generates short gene-specific probes, containing mainly 3′ untranslated regions of transcribed sequences, and therefore the functional part of the differentially expressed gene is unknown. Thus, using differential display and confirmatory northern blotting, we have shown that methyl jasmonate and cis-jasmone have apparently distinct effects on plant gene expression. […] Thus, the two compounds have distinct effect on plant gene expression and the response to these signalling compounds may be tissue-specific.

CC/C=C\CC1=C(C)CCC1=O [cis-jasmone]
reduction of catches in water traps with visual (yellow) attractancy [1]: 40%
percent reduction in trap catch compared with the unbaited trap ([2]; Analysis A, 2.2 mg/day): (44%)
Back-transformed mean catch per replicate ([2]; Analysis A, 2.2 mg/day, unbaited trap 127.3): 70.9^b
percent reduction in trap catch compared with the unbaited trap ([2]; Analysis A, 25 mg/day): (59%)
Back-transformed mean catch per replicate ([2]; Analysis A, 25 mg/day, unbaited trap 127.3): 51.7^c
percent reduction in trap catch compared with the unbaited trap ([2]; Experiment A, 2.2 mg/day): (21%)
Back-transformed mean catch per replicate ([2]; Experiment A, 2.2 mg/day, unbaited trap 48.3): 38.2^ab
percent reduction in trap catch compared with the unbaited trap ([2]; Experiment A, 25 mg/day): (35%)
Back-transformed mean catch per replicate ([2]; Experiment A, 25 mg/day, unbaited trap 48.3): 31.4^b
percent reduction in trap catch compared with the unbaited trap ([2]; Experiment B, 2.2 mg/day): (60%)
Back-transformed mean catch per replicate ([2]; Experiment B, 2.2 mg/day, unbaited trap 333.1): 130.7^bc
percent reduction in trap catch compared with the unbaited trap ([2]; Experiment B, 25 mg/day): (75%)
Back-transformed mean catch per replicate ([2]; Experiment B, 25 mg/day, unbaited trap 333.1): 84.6^c
numbers of parasitized aphids, treated versus untreated plots [3]: no significant difference
numbers of cereal aphids per 60 tillers, treated versus untreated plots ([3]; five sampling dates, significant on last two dates): consistently lower
% showing oriented flight [4]: 53.1^a %
expression of D251 sequence in leaf tissue ([5]; RNA from leaf tissue of plants exposed to vapour): upregulated
expression of D251 sequence in stem tissue ([5]; RNA from stem tissue of plants exposed to vapour): upregulated to a similar level
